Assay results as given in patent US6207666A, “Method for treating a patient having precancerous lesion with 4-phenylphthalazine derivatives” (Cell Pathways, Inc., priority 1998, dated 2001).

Columns and labels:
[1] = system: human colon carcinoma cell line, HT-29; assay: HT-29 tumor cell growth inhibition, Sulforhodamine B (SRB) protein binding assay, six days continuous exposure; type: cell-based; settings: for SRB Binding (A550): vehicle 0.801 ± 0.137
Protocol: Compound No. 17, 1-(3-chloroanilino)-4-phenylphthalazine, was assayed for its effect on the human colon carcinoma cell line, HT-29 obtained from ATCC, (Rockville, Md.) to ascertain the degree of growth inhibition. Growth inhibition of this cell line is thought to be indicative of a benefit on precancerous lesions and neoplasms. The cell line and growth assay employed for these experiments is well characterized, and is used by the United States National Cancer Institute in its screening program for new anti-cancer drugs.
Drug stock solutions were made in 100% DMSO then diluted with RPMI media for cell culture testing. All drug solutions were prepared fresh on the day of testing. The cultured cells were obtained at passage #118 and grown in RPMI media supplemented with 5% fetal calf serum, and 2 mM glutamine, 100 U/ml penicillin, 100 U/ml streptomycin, and 0.25 μg/ml amphotericin. The cultures were maintained in a humidified atmosphere of 95% air and 5% CO2 at 37° C. The cultures were passaged at preconfluent densities using a solution of 0.05% trypsin and 0.53 mM EDTA. All experiments involved HT-29 cells between passages 120 and 140. Cells were plated at the following densities to obtain cultures used for the experiments: 500 cells/well for 96 well flat-bottom microtiter plates, 1×10^6 cells per 25 cm^2 flask, or 4×10^6 cells per 75 cm^2 flask.
Tumor cell growth inhibition was assessed using the Sulforhodamine B (SRB) protein binding assay. In this assay, tumor cells were plated in 96-well plates and treated with drug-containing media for six days (continuous exposure). For each plate, 6 wells were designated as no treatment controls, six wells as vehicle (0.1% DMSO) controls, and the remaining wells for drug dilutions with six wells per drug concentration. At the end of the exposure period, the cells were fixed and stained with sulforhodamine B, a protein binding dye. The dye was then solubilized, and the optical density of the resulting solution was determined on a 96-well plate reader. The mean dye intensity of the treated wells was then divided by the mean dye intensity in the control wells (6 wells of each) to determine the effect of the drug on the cells. Dye intensity is proportional to the number of cells or amount of protein per well. The resultant "percent inhibition" value then represents the degree of growth inhibition caused by the drug in Table 4 below.

[2] = system: mammary lesions (mouse mammary gland organ culture); assay: DMBA-induced mammary lesions in mouse mammary gland organ culture; type: cell-based, mouse (female BALB/c); settings: for Glands with Lesions: vehicle 11 of 15; for Percent Incidence (mammary lesions): vehicle 73.33
Protocol: Compound No. 17 was also tested for its ability to inhibit the incidence of mammary lesions in an organ culture system. This mouse mammary gland organ culture technique has been successfully used by other investigators to study the effects of known cancer-chemopreventative agents such as retinoids and selenium.
Female BALB/c mice, 28 days old, were treated for nine days with a combination of […] of estradiol and 1 mg of progesterone daily, in order to prime the glands to be responsive to hormones in vitro. The animals were sacrificed and thoracic mammary glands were excised aseptically and incubated for ten days in growth media supplemented with growth-promoting hormones: insulin, prolactin, and hydrocortisone, at 5 μg/ml each and aldosterone at 1 μg/ml. A twenty-four hour treatment of 7,12-dimethylbenz(a)anthracene (DMBA, 2 μg/ml) was carried out between days three and four to induce the formation of mammary lesions. Fully developed glands were deprived of prolactin, hydrocortisone, and aldosterone for 14 days, resulting in the regression of the glands but not the mammary lesions.
In order to evaluate the effects of Compound No. 17, it was dissolved in DMSO and added to the culture media supplemented for the duration of the culture period. At the end of the culture period, the glands were fixed in 10%. formalin, stained with alum carmine, and mounted on glass slides. The incidence of forming mammary lesions is the ratio of the glands with mammary lesions and glands […]. The incidence of mammary lesions in compound 17 treated glands was compared with that of the untreated glands.
The extent of the area occupied by the mammary lesions was quantitated by projecting an image of the gland onto a digitation pad. The area covered by the gland was traced on the pad and considered as 100% of the area. The space covered by each of the unregressed structures was also outlined on the digitization pad and quantitated by the computer.

HT-29 cells = assay: Apoptosis and necrosis by fluorescent microscopy (acridine orange and ethidium bromide) in confluent HT-29 cultures; type: cell-based, human
Protocol: Drug stock solutions were made in 100% DMSO then diluted with RPMI media for cell culture testing. All drug solutions were prepared fresh on the day of testing. The cultured cells were obtained at passage #118 and grown in RPMI media supplemented with 5% fetal calf serum, and 2 mM glutamine, 100 U/ml penicillin, 100 U/ml streptomycin, and 0.25 μg/ml amphotericin. The cultures were maintained in a humidified atmosphere of 95% air and 5% CO2 at 37° C. The cultures were passaged at preconfluent densities using a solution of 0.05% trypsin and 0.53 mM EDTA. All experiments involved HT-29 cells between passages 120 and 140. Cells were plated at the following densities to obtain cultures used for the experiments: 500 cells/well for 96 well flat-bottom microtiter plates, 1×10^6 cells per 25 cm^2 flask, or 4×10^6 cells per 75 cm^2 flask. Apoptosis and necrosis were measured using an assay which allowed for the simultaneous measurement of both types of cell death based on morphological characteristics of apoptotic cells (i.e., condensed chromatin) and membrane permeability. Drug preparation and cell culture conditions were the same as above. Confluent cultures were assayed for apoptosis and necrosis by fluorescent microscopy following labeling with acridine orange and ethidium bromide. Floating and attached cells were collected by trypsinization and washed three times in PBS. One ml aliquots of 1×10^6 cells were centrifuged (300 g). The pellet was resuspended in 25 μl media and 1 μl of a dye mixture containing 100 μg/ml acridine orange and 100 μg/ml ethidium bromide prepared in PBS and mixed gently. Ten μl of mixture was placed on a microscope slide and with a 22 mm^2 coverslip and examined under 40 x dry objectives using epilumination and filter combination. An observer blinded to the identity of the treatments scored at least 100 cells per sample. Apoptotic cells were identified by nuclear condensation of chromatin stained by the acridine orange or ethidium bromide. Necrotic cells were identified by uniform labeling of the cell with ethidium bromide. Data was also obtained, under the same procedure above, for the percent of apoptotic cells induced by treatment with varying concentrations of compound No. 17.

## Clc1cccc(Nc2nnc(-c3ccccc3)c3ccccc23)c1 [Compound No. 17, 1-(3-Chloroanilino)-4-phenylphthalazine]
[1]; 1 μM
  SRB Binding (A550): 0.851 ± 0.059
[1]; 10 μM
  SRB Binding (A550): 0.007 ± 0.003
[1]; 100 μM
  SRB Binding (A550): 0.009 ± 0.010
[1]; Homo sapiens, 144 h, 1 μM
  inhibition at 1 µM: 0%
[1]; Homo sapiens, 144 h, 10 μM
  inhibition at 10 µM: 100%
[1]; Homo sapiens, 144 h, 100 μM
  inhibition at 100 µM: 100%
[2]; 10 μM, of 13 glands
  Glands with Lesions: 7
[2]; 10 μM
  Percent Incidence (mammary lesions): 53.85%
[2]; 100 μM, of 15 glands
  Glands with Lesions: 4
[2]; 100 μM
  Percent Incidence (mammary lesions): 26.67%
[2]; Mus musculus, 10 μM, read-out: Percent Inhibition (mammary lesions)
  inhibition at 10 µM: 27%
[2]; Mus musculus, 100 μM, read-out: Percent Inhibition (mammary lesions)
  inhibition at 100 µM: 64%
HT-29 cells; 1 μM (Table 6), 0 μM gives 4%
  % Apoptotic Cells: 12%
HT-29 cells; 5 μM (Table 6), 0 μM gives 4%
  % Apoptotic Cells: 13%
HT-29 cells; 10 μM (Table 6), 0 μM gives 4%
  % Apoptotic Cells: 7%
HT-29 cells; 25 μM (Table 6), 0 μM gives 4%
  % Apoptotic Cells: 8%
HT-29 cells; 40 μM, HT-29, vehicle 2%, none 5%
  % Necrotic Cells: 6%
HT-29 cells; 40 μM, HT-29, vehicle 9%, none 7%
  % Apoptotic Cells: 83%
HT-29 cells; 50 μM (Table 6), 0 μM gives 4%
  % Apoptotic Cells: 78%
